Reference: patent US20050148034A1, “Methods for identification of modulators of angiogenesis, compounds discovered thereby, and methods of treatment using the compounds” (priority 2002, published 2005)
Where two headings read alike, the source gives them in different places.

Tests used:
[1] = tested on: embryonic-like stem cells derived from placenta; experiment: Immunostaining for CD34, CD45 and CD105 in cultured placental stem cells (ratios to TNC, Table 3); assay type: cell-based, human; settings: for CD34/TNC / CD45/TNC / CD105/TNC: placental conditioned media, 1 μg/ml, 14 days in culture; for numbers of cells expressing CD34, CD45 and CD 105: summary of Table 3
Method: (§1) The cells were scored for the expression of CD34 (a marker of early hematopoietic progenitor cells; also an endothelial cell marker), CD45 (a marker of all hematopoietic cells except erythrocytes), CD105 (a marker of proliferating endothelial cells), smooth muscle cell (SMC)-specific myosin heavy chain, nestin ([…]), and glial fibrillary acidic protein (GFAP). Ratios of CD34 cells/TNC (Total Number of Cells), CD45 cells/TNC and CD105 cells/TNC were also determined.
In another experiment, the results of which are summarized in Table 3, embryonic-like stem cells derived from placenta were cultured, using the conditions described in the umbilical vessel ring assay described above, in the presence of placenta-conditioned medium with DMSO (negative control), Thalomid™, Actimid™ or Revimid™. After 14 days in culture, the cells were then immunostained for expression of CD34+, CD45+ and CD 105+.

rat aortic rings = experiment: Rat aortic angiogenesis assay; assay type: cell-based, Sprague Dawley rats; settings: for mean microvessel growth (% of control): without microsomes
Method: Twelve well tissue culture grade plates were covered with 250 μl of Matrigel and allowed to gel for 30-45 min at 370 C, 5% Co2. Thoracic aortas were excised from eight to ten week old male Sprague Dawley rats and the fibroadipose tissue was removed. The aortas were sectioned into 1 mm long sections, rinsed eight times with EGM-2 (Clonetics Corp), placed on the Matrigel coated wells, covered with additional 250 μl Matrigel, and allowed to gel for 30-45 min at 370 C. The rings were cultured for 24 hours in 2 ml of EGM-2. After 24 hours, recombinant murine endostatin was reconstituted in EBM and added as a single treatment on day 1. Thalidomide was added at different concentrations (1 μg/ml, 5 μg/ml, 10 μg/ml, 50 μg/ml and 100 μg/ml) in the presence or absence of rabbit microsomes as noted in the Table 5. Aortic rings were photographed on days.

[2] = tested on: embryonic-like stem cells derived from placenta; experiment: Marker expression of cultured embryonic-like stem cells (staining score, Table 2); assay type: cell-based, human; design: key to SMC-specific Myosin HC / GFAP / CD34+ / CD45+: −: no staining; +/−: <20% staining; +: 20-50% staining; ++: 50-75% staining; +++: >75% staining; settings: for CD34+ / CD45+ / GFAP / Nestin / SMC-specific Myosin HC: placental conditioned media, fourteen days of culture; for numbers of cells expressing CD34, CD45 and smooth muscle cell (SMC)-specific myosin heavy chain / numbers of cells expressing nestin and glial fibrillary acidic protein (GFAP): summary of Table 2
Method: The following experiments evaluated the effects of Thalomid™, Actimid™ and Revimid™ on the morphological differentiation of embryonic-like stem cells derived from placenta. The morphological differentiation of cultured embryonic-like stem cells was evaluated after fourteen days of culture in the presence of placental conditioned medium and with DMSO (control), EGCF, Thalomid™, Actimid™ or Revimid™.
Embryonic-like stem cells were isolated from placenta as described above in Section 5.4. The embryonic-like stem cells were cultured using the culture conditions described above.
as §1
In Table 2, the scoring was as follows: • −: no staining; +/−: <20% staining+: 20-50% staining; ++: 50-75% staining; +++: >75% staining.

[3] = tested on: human umbilical cord vessel rings; experiment: Human angiogenesis assay (umbilical artery vessel rings in Matrigel); assay type: cell-based; settings: for Microvessel Growth (% Inhibition): vs 0.1% DMSO, three weeks, average of two rings
From the text: Fresh human umbilical cords were collected by trained medical personnel under fill donor informed consent from local hospitals. The cords were transported and treated within three hours. Umbilical cords and vessel lumens were rinsed with chilled basal nutrient medium. The artery was removed from the cord using mechanical means, forceps and small surgical scissors in an aseptic field. The vessel was cleaned of connective tissue and vessel rings were cut cross-wise in a length of 1 mm. The rings were placed into EGM-2 medium (Clonetics Corp.) in a 50 ml conical bottom tube and stored at 4° C. Six-well tissue culture plates were covered with […] of Matrigel and allowed to gel for 30-45 min at 37° C., under 5% CO2. The vessel rings were rinsed in EGM-2 medium and placed on the Matrigel-coated wells, covered with additional 250 μl Matrigel, and allowed to gel for 30-45 min at 37° C. (see FIG. 6). The vessels were cultured for 24 hours in 4 ml of EGM-2 to allow the tissue to adapt to its new environment. After 24 hours incubation, the rings were treated either with 0.1% DMSO as control, or different concentrations of compounds (thalidomide or CC4047). Culture medium was changed twice per week for total of three weeks.
The effects of compounds on cultured vessel rings were compared with the effect of DMSO on vessel rings. The results were analyzed using Image-Pro® Plus software (MediaCybernetics, Inc. Carlsbad, Calif.).
These experiments were done in duplicates and the results are the average of two rings in same experiment. A different concentration of Fumagillin is used as positive control in this experiment.

[4] = tested on: embryonic-like stem cells derived from placenta; experiment: Total vessel area/field and branching/bifurcation of cultured placental embryonic-like stem cells (Table 4); assay type: cell-based, human; design: key to Branching/Bifurcation (+/−): +: a branch or bifurcation was observed; −: no branch or bifurcation was observed; settings: for branching and/or bifurcation exhibited by the cells / total vessel area/field covered by the cells: summary of Table 4
Method: In another experiment, the results of which are summarized in Table 4, embryonic-like stem cells derived from placenta were cultured, using the culture conditions described above, and in the presence of EGCF, DMSO, Thalomid™, Actimid™ or Revimid™.
A “+” means that a branch or bifurcation was observed and a “−” means that no branch or bifurcation was observed. […] See also FIGS. 3A, 3B

[5] = tested on: human umbilical cord blood vessel rings; settings: 10^−5 M, compared with the DMSO (0.5%) diluent control; cited from earlier work
[6] = tested on: human umbilical cord blood vessel rings; experiment: Umbilical cord blood vessel ring angiogenesis assay (validation with known modulators); assay type: cell-based
Method: Blood vessels, approximately 1-2 mm in diameter and 1-2 cm in length, were excised from human umbilical cord within 12 hours of birth. Both arterial and venous tissue were harvested and maintained separately. The vessels were placed in DMEM containing 2.5 μg/ml of fungizone and cut into 1-2 mm length fragments using fine dissecting forceps and iridectomy scissors. Vessel fragments were freed of residual clots and soaked in DMEM before use. Dissecting and sectioning of vessels were performed with the aid of a surgical microscope. Similar angiogenic responses were obtained from blood vessels of venular and arterial origin but for each assay, vessel fragments from only one vessel were used. See FIG. 6 for a graphic depiction of the assay setu.
Assays were performed in petri dishes (10 to 25 cm^2) or 6-well culture plates (Costar, Cambridge, Mass.), which were prepared by pre-coating with either 0.1% gelatin (Sigma, St. Louis, Mo.) or MATRIGEL® (BD Biosciences) to form a matrix. Following the coating of the plates, 50 μl of human cord blood plasma in 5 mL of DMEM were added to each dish/well to form a surface film over the matrix. The film was allowed to set at 37° C. for 90 minutes, after which it was removed, leaving a thin film in each dish/well. Vessel ring segments were then positioned at central locations within the plate or dish. Petri dishes were divided into quarters, and vessel ring segments were placed in the center of each of the quadrants. In the case of 6-well culture plates, a vessel ring segment was placed in each of the wells. Vessel ring segments generally adhered to the coated matrix within 12 hours, allowing for the addition of media without risk of detachment due to buoyancy. […]
Test compounds were administered at the beginning of culture, once the adherent stem cells were selected, or once the vessel rings are determined to have adhered to the matrix. Each test compound is evaluated at various concentrations to enable generation of a dose response analysis. […]
Vessel outgrowth was scored as a quantitative comparison to the positive and negative controls, using the following notations: − negative; +/− minimally above negative control; + low level of outgrowth; ++ moderate level of outgrowth; +++ high level of outgrowth; ++++ positive control level of outgrowth. Vessel outgrowth was also scored morphometrically as the maximal distance of vessel sprout growth in microns from the vessel ring, and as the total area of endothelial cell coverage (ECA)/area of vessel ring (VRA).
Following culture for 14-21 days, as described above, angiogenesis was quantified and compared with control cultures. […]

Molecule | CD34/TNC [1] | CD45/TNC [1] | CD105/TNC [1] | numbers of cells expressing CD34, CD45 and CD 105 [1] | CD34+ ([2]; 1 μg/mL) | CD45+ ([2]; 1 μg/mL) | GFAP ([2]; 1 μg/mL) | Nestin ([2]; 1 μg/mL) | SMC-specific Myosin HC ([2]; 1 μg/mL) | CD34+ ([2]; 10 μg/mL) | CD45+ ([2]; 10 μg/mL) | GFAP ([2]; 10 μg/mL) | Nestin ([2]; 10 μg/mL) | SMC-specific Myosin HC ([2]; 10 μg/mL) | numbers of cells expressing CD34, CD45 and smooth muscle cell (SMC)-specific myosin heavy chain [2] | numbers of cells expressing nestin and glial fibrillary acidic protein (GFAP) [2] | Branching/Bifurcation (+/−) ([4]; 1 μg/ml) | Total Vessel Area/Field (% Coverage) ([4]; 1 μg/ml) | Branching/Bifurcation (+/−) ([4]; 10 μg/ml) | inhibition of angiogenesis ([6]; 100 μg/ml) | further results
Nc1cccc2c1C(=O)N(C1CCC(=O)NC1=O)C2=O (centres unmarked) [Actimid, 4-(Amino)-2-(2,6-dioxo(3-piperidyl))-isoindoline-1,3-dione] | 0.04 | 0.94 | 26.3 | decrease | − | − | − | ++ (50-75% staining) | − | − | − | + (20-50% staining) | +++ (>75% staining) | − | decreased | increased | − | 11.3 +/− 2.8 % Coverage | − |  | mean microvessel growth (% of control) (rat aortic rings; 10 μg/ml): 14.2 % of control; mean microvessel growth (% of control) (rat aortic rings; 100 μg/ml): 0.00 % of control; need of rabbit microsomes for inhibition of vessel formation (rat aortic rings; summary of Table 5): did not require microsomes for inhibition of vessel formation; Microvessel Growth (% Inhibition) ([3]; 0..1 μM): 50.1 % Inhibition; Microvessel Growth (% Inhibition) ([3]; 1 μM): 85 % Inhibition; Microvessel Growth (% Inhibition) ([3]; 10 μM): 100 % Inhibition; formation of microvessel outgrowth ([3]; compared with DMSO treated samples): inhibited the formation of microvessel outgrowth in a dose dependent manner; Total Vessel Area/Field (% Coverage) ([4]; 10 μg/ml): 6.7 +/− 4.1 % Coverage; branching and/or bifurcation exhibited by the cells [4]: decreases the branching and/or bifurcation exhibited by the cells; total vessel area/field covered by the cells [4]: decrease in the total vessel area/field covered by the cells
Nc1cccc2c1CN(C1CCC(=O)NC1=O)C2=O (centres unmarked) [Revimid, 3-(4-amino-1-oxo-1,3-dihydro-isoindol-2-yl)-piperidine-2,6-dione] | .22 | 1.71 | 17.3 | decrease | − | − | + (20-50% staining) | + (20-50% staining) | − | − | − | +++ (>75% staining) | ++ (50-75% staining) | − | decreased | increased | − | 13.5 +/− 7.7 % Coverage | − |  | Total Vessel Area/Field (% Coverage) ([4]; 10 μg/ml): 12.1 +/− 7.4 % Coverage; branching and/or bifurcation exhibited by the cells [4]: decreases the branching and/or bifurcation exhibited by the cells; total vessel area/field covered by the cells [4]: decrease in the total vessel area/field covered by the cells
C[C@]12CCC(=O)C=C1CC[C@@H]1[C@@H]2[C@@H](O)C[C@@]2(C)[C@H]1CC[C@]2(O)C(=O)CO [hydrocortisone] |  |  |  |  |  |  |  |  |  |  |  |  |  |  |  |  |  |  |  |  | inhibition of angiogenesis [5]: partially inhibited angiogenesis
Cc1ccc(C(=O)Nc2ccc(S(=O)(=O)O)c3cc(S(=O)(=O)O)cc(S(=O)(=O)O)c23)cc1NC(=O)c1cccc(NC(=O)Nc2cccc(C(=O)Nc3cc(C(=O)Nc4ccc(S(=O)(=O)O)c5cc(S(=O)(=O)O)cc(S(=O)(=O)O)c45)ccc3C)c2)c1 [suramin] |  |  |  |  |  |  |  |  |  |  |  |  |  |  |  |  |  |  |  | virtually totally inhibited angiogenesis | inhibition of angiogenesis ([6]; 10 μg/ml): the inhibitory activity of this compound is lost
heparin |  |  |  |  |  |  |  |  |  |  |  |  |  |  |  |  |  |  |  | small but significant inhibition of angiogenesis | 
low molecular weight heparin |  |  |  |  |  |  |  |  |  |  |  |  |  |  |  |  |  |  |  | small but significant inhibition of angiogenesis | 
